Measured values as given in PMC4879473 (CPT: Pharmacometrics & Systems Pharmacology, 2016).

Assays:
CYP3A/P‐gp = conditions: clinical DDI studies; cited from earlier work
CYP3A [1] = target: CYP3A (Homo sapiens, UniProt P08684); conditions: ciprofloxacin at 2 mM, in vitro; cited from earlier work
P‐gp = conditions: reported value, P-gp-mediated efflux; cited from earlier work
CYP3A4 = test: Retrograde calculation of naloxegol metabolic intrinsic clearance; design: species or system human
[2] = cited from earlier work
[3] = Apparent permeability of naloxegol in Caco-2 cells; type: in vitro ADME; conditions: human
[4] = cited from earlier work; remark: listed apart in the source
[5] = Naloxegol blood/plasma, microsomal and gut binding inputs; type: in vitro ADME; conditions: plasma
[6] = Physicochemical properties of naloxegol; conditions: Experimental data
CYP3A [7] = conditions: individual CYP enzymes and human liver microsomes in vitro; cited from earlier work

CYP3A (Homo sapiens, UniProt P08684), sequence (P08684 2-503): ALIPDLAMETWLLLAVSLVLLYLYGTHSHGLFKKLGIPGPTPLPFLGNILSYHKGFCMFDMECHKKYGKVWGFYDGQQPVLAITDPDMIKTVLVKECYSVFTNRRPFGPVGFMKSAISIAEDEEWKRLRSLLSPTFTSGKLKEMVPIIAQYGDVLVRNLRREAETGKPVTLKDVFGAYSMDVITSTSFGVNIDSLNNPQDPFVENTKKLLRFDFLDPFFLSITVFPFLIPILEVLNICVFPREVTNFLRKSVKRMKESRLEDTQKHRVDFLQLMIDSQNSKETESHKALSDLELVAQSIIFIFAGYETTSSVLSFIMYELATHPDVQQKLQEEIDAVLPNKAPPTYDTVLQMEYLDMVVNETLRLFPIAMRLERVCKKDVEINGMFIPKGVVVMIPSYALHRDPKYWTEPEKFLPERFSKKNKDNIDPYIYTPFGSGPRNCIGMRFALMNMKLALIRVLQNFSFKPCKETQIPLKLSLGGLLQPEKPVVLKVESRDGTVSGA

CC(=O)N1CCN(c2ccc(OCC3COC(Cn4ccnc4)(c4ccc(Cl)cc4Cl)O3)cc2)CC1 (centres unmarked) [Ketoconazole, ketoconazole]
observed increase of naloxegol AUC (CYP3A/P‐gp): 1,185%

O=C(O)c1cn(C2CC2)c2cc(N3CCNCC3)c(F)cc2c1=O [Ciprofloxacin, ciprofloxacin]
inhibition of erythromycin‐mediated CYP3A activity (CYP3A [1]): 65%

C[C@H]1O[C@@H](O[C@H]2[C@@H](O)C[C@H](O[C@H]3[C@@H](O)C[C@H](O[C@H]4CC[C@@]5(C)[C@H](CC[C@@H]6[C@@H]5C[C@@H](O)[C@]5(C)[C@@H](C7=CC(=O)OC7)CC[C@]65O)C4)O[C@@H]3C)O[C@@H]2C)C[C@H](O)[C@@H]1O [digoxin]
in vitro transporter‐mediated intrinsic clearance (P‐gp): 2.5 µL/min

C=CCN1CC[C@]23c4c5ccc(O)c4O[C@H]2[C@@H](OCCOCCOCCOCCOCCOCCOCCOC)CC[C@@]3(O)[C@H]1C5 [naloxegol]
CYP3A4 CLint (CYP3A4; Retrograde calculation): 0.267 μL/min/pmol protein | microsomal CLint (CYP3A4; human): 36.6 µL/min/mg | solubility [2]: highly soluble | Papp [3]: 4.55 ×10⁻⁶ cm/s | parent drug excreted in urine ([4]; 27 mg [14C]naloxegol oral solution, healthy male volunteers): < 6 % of the dose | dose linearity of PK ([4]; dose of up to 1,000 mg): linear or near linear | CLR ([4]; renal clearance from the renal impairment study): 4.74 L/h | CLpo ([4]; total clearance after an oral dose, observed in the ketoconazole DDI study): 150 L/h | fraction unbound [5]: 0.958 | pKa [6]: 8.45 | CYP enzymes metabolizing naloxegol (CYP3A [7]): metabolized primarily by CYP3A
